Molecules are shown by their SMILES. pEC50, pIC50: −log10 of the molar value. ≈ marks a conversion by molar mass, not a printed value. Numbered stars: 1 amine (or outer) side, 2 acyl side, 3 side chain; on linkers, the order of the positions; unused ones are H or OH. Square brackets hold non-standard residues; d marks the D form. Peptide text beside a SMILES is read from it. ξ: configuration not given here. X1 = CN(C)C1(CS[C@H](C(=O)[*:2])N(C)[*:1])CCC1; ξNMeBmt = C/C=C/C[C@@H](C)[C@@H](O)C(NC)C(=O)O; X2 = CC(C)[C@H](C(=O)[*:2])N(Cc1ccccc1)[*:1]; NMeL = CN[C@@H](CC(C)C)C(=O)O; dNMeL = CN[C@H](CC(C)C)C(=O)O; dNMeV = CN[C@@H](C(=O)O)C(C)C; dAbu = CC[C@@H](N)C(=O)O

The record followed here is patent publication US20140212381A1, “MACROCYCLES” (Scynexis, Inc., priority 2012, published 2014).

The target in one test is Cyclophilin B (Homo sapiens, UniProt P23284). Nature of the test: Cyclophilin binding, competitive ELISA. Particulars: human recombinant cyclophilin. The source says: Plates were washed as described above. […] Plates were washed as described above.
The subject of the next test is Influenza B (B/Allen/45). Nature of the test: Anti-influenza virus cytoprotection assay in MDCK cells. In kind it is cell-based. Particulars: read-out: levels of inhibition.
For test [1], the system named is Influenza A H1N1 (A/CA/05/09). The description is as above. In kind it is cell-based. Particulars: read-out: levels of inhibition.
Test [2] deals with HCV RNA replicon, Genotype 1b. Nature of the test: HCV replicon assay, 1b replicon (LUC). The settings on record: Hepatitis C virus, GETYPE1B, in Homo sapiens, 72 h, read-out: mean EC50, Genotype 1b.
Text: Compounds were examined in the human hepatoma cell a HCV RNA replicon containing a stable luciferase (LUC) reporter. The HCV RNA replicon ET contains the 5′ end of HCV (with the HCV Internal Ribosome Entry Site (IRES) and the first few amino acids of the HCV core protein) which drives the production of neomycin phosphotransferase (NeoR) fusion protein. A luciferase reported is incorporated into 1b replicon. The EMCV IRES element controls the translation of the HCV structural proteins NS3-NS5. The NS3 protein cleaves the HCV polyprotein to release the mature NS3, NS4A, NS4B, NS5A and NS5B proteins that are required for HCV replication. At the 3′ end of the replicon is the authentic 3′ NTR of HCV. The activity of the LUC reporter is directly proportional to HCV replication levels and positive-control antiviral compounds produce a reproducible antiviral response using the LUC endpoint.
The compounds were dissolved in DMSO at six half-log concentrations. HCV replicon cells were plated out into 96 well plates dedicated for the analysis of cell numbers (cytotoxicity) or antiviral activity and the next day the compounds were added to the appropriate wells. […] Compound EC50 and EC90 values were derived from HCV RNA levels assessed as HCV RNA replicon derived LUC activity. […] Compound IC50 and IC90 values were calculated using a colorimetric assay as an indication of cell numbers and cytotoxicity. […]
The subject of test [3] is IL-2 production by stimulated T Cells (Jurkat cells). Nature of the test: Inhibition of IL-2 production in stimulated Jurkat cells. In kind it is cell-based. The settings on record: Homo sapiens, Jurkat, read-out: IL-2 inhibition IC50. How it is done: Compounds of formula (I) were tested for their inhibition of IL-2 production by stimulated T Cells, using Jurkat cells with anti-CD3 and anti-CD28 co-stimulation. […] Cyclosporine A (control) was also run at a 0.5-Log 9-point titration. starting at 500 ng/mL. All compounds to be tested were dissolved in dimethyl sulfoxide. Cytotoxicity was evaluated with parallel Alamar Blue plates. Jurkat cells were seeded at […] per well in 200 μL growth media in a 96-well plate. Cells were cultured in complete RPMI medium supplemented with 10% fetal bovine serum with one hour incubation at 37° C. with 5% carbon dioxide
PMA and PHA were diluted in complete media to a final concentration of 1 ng/mL and 5 μg/mL respectively. The diluted compounds were mixed 1:1 and 25 μL of the mixture was added per well. The plates were incubated overnight at 37° C. in 5% CO2.
The following day one hundred microliters of cell culture supernatant were transferred from each well to a non-sterile V-bottom plate and stored plate at −80° C. prior to analysis. Determination of IL-2 concentrations in the supernatant was performed using the Pierce Human IL-2 Colorimetric ELISA kit as per the manufacturer's directions (Pierce, #EH2IL25). Cell culture supernatants were diluted with an equal volume of complete RPMI (25 μL sample+25 μL RPMI per well) prior to testing in order to remain in linear range of the assay.
Duplicate wells containing cells in the absence of PMA/PHA and test drug (background) and duplicate wells containing cells stimulated with PMA/PHA in the absence of test drug (100% production of IL-2) were included as controls. Activated cells treated with DMSO were used to normalize IL-2 values. IL-2 standard curves were generated using a 4-parameter curve fit in SoftMax Pro software from Molecular Devices.
Two independent assays were performed to evaluate the effect of cyclosporine A and representative compounds on IL-2 production in PMA/PHA stimulated Jurkat cells (mean values were calculated).

The subject of test [4] is Influenza A H3N2 (A/HK/8/68). Nature of the test: Anti-influenza virus cytoprotection assay in MDCK cells. Particulars: read-out: levels of inhibition. In kind it is cell-based.

Sequence of Cyclophilin B (P23284 34-216): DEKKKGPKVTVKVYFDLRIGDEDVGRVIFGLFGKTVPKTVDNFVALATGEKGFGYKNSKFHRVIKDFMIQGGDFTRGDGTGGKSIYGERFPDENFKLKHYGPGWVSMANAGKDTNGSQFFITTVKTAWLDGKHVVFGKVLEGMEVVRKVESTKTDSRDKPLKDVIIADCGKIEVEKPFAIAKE

Turning to `C/C=C/C[C@@H](C)[C@@H](O)C1C(=O)N[C@H](CC)C(=O)N(C)[C@H](SCC2(N(C)C)CCC2)C(=O)N(C)[C@@H](CC(C)C)C(=O)N(Cc2ccccc2)[C@H](C(C)C)C(=O)N(C)[C@H](CC(C)C)C(=O)N[C@H](C)C(=O)N[C@@H](C)C(=O)N(C)[C@H](CC(C)C)C(=O)N(C)[C@H](CC(C)C)C(=O)N(C)[C@H](C(C)C)C(=O)N1C` (stereo partly drawn) [Compound F] (cyclo(A[dNMeL][dNMeL][dNMeV][ξNMeBmt][dAbu][X1][NMeL][X2][dNMeL][dA])), the pIC50 at Cyclophilin B is 7.37. In addition, the inhibition at 10 µM stood at 15% in the test on Influenza B (B/Allen/45), 98% in test [1] and 68% in test [4]. The pEC50 in test [2] is 6.28. The IC50 in test [3] was determined as 0.452 µg/mL (≈ 0.315 µM).
